# Measured values taken from patent publication US5141943A, “5-benzyl barbiturate derivatives” (Brown University Research Foundation, priority 1990, dated 1992).
# Like-named read-outs stand apart in the source and are kept apart here.
# Columns and labels:
# uridine phosphorylase [1] = experiment: Inhibition of uridine phosphorylase (mouse liver cytosol, uridine substrate); assay type: biochemical; details: for Ki: uridine 1 mM, pH 8, 37° C., 30 min, Dixon plots, read-out: APP Ki (apparent inhibition constant); for uridine phosphorylase inhibition compared with uracil / acyclouridine counterpart or analogue: comparison in words from Table I
# Procedure: The activity of the 5-benzyl barbiturates of this invention as inhibitors of uridine phosphorylase was measured essentially following the procedure of Naguib et al. (vol. 36, Biochem. Pharmac. pp. 2195-2201 (1987)), the disclosure of which is incorporated herein by reference. An abridged description of the protocol is described below.
# Mouse livers for these experiments were obtained from Swiss Albino (CDl) mice (Charles River Laboratories, Boston, Mass.). The mice were killed by cervical dislocation, and the livers removed and washed with ice-cold normal saline (0.9%) before any further manipulation.
# The saline solution was wiped off the organs with tissue paper, and the organs weighed and then cut into smaller pieces in ice-cold homogenization buffer (3:1, v/w) containing 20 mM potassium phosphate (pH 8), 1 mM EDTA, and 1 mM mercaptoethanol. The livers were then homogenized with a polytron homogenizer (Brinkman), and the homogenates centrifuged at 105,000 g for 1 hr at 4°. The supernatant fluids (cytosol) were collected and used as the enzyme source.
# The assay mixture contained 20 mM potassium phosphate (pH 8), 1 mM EDTA, 1 mM mercaptoethanol, substrate (uridine, 9 mCi/mmol) and 40 μl of enzyme preparation in a final volume of 80 μl. Under these conditions the activity was linear with time and amount of enzyme. Apparent Ki values were estimated from Dixon plots (1/v vs[I]) of the data by a computer program with least squares fitting, using uridine (1 mM) and five different concentrations of the inhibitor within the range of 0.0625 μM and 1.0 μM.
# Incubation was carried out at 37° C., for 30 min. The reaction was terminated by immersing the reaction tubes (1 ml Eppendorf tubes) in boiling water for 1 min. and then freezing the reaction tubes for at least 20 min. Proteins were removed by centrifugation, and 5 μl of the supernatant fluid spotted on silica gel TLC plates which had been prespotted with 5 μl of a standard mixture of 10 mM each uridine and uracil. The plates were then developed in a mixture of chloroform and methanol (90:10, v/v). Uridine and uracil were identified by UV quenching. (Rf values for uridine and uracil are 0.09 and 0.39, respectively.) Spots were then cut out and counted in 20 ml of Omnifluor-based scintillant.
# Protein concentrations were determined by the method of Bradford, (Bradford, M. M., vol. 72, Analyt. Biochem. p. 248 (1976)) as described by the Bio-Rad Laboratories (Bio-Rad Laboratories, Bulletin 1069, Bio-Rad Laboratories, Richmond, Calif. (1979)), using bovine […] as a standard.
# [2] = Solubility in water at room temperature; assay type: physicochemical
# [3] = prolonged AZT administration, or high doses of uridine (background); cited from earlier work
# [4] = in water at room temperature; acyclouridines of the art (background); cited from earlier work
# uridine phosphorylase [5] = details: *calculated from Niedzwicki, J. G. et al.; read-out: APP Ki (apparent inhibition constant); cited from earlier work
# [6] = tested on: human bone marrow progenitor cells (HBMP); details: Somadossi et al. 1988; cited from earlier work
# [7] = water, in water, at room temperature, read-out: SOL. (solubility)
molecule,measurement,setting,value
5-benzyloxybenzylacetyl-1-[(1-hydroxy-2-ethoxy)methyl] barbiturate [BBCAB],Ki,uridine phosphorylase [1],2.6 µM
same,SOL. (solubility),"[2]; in water, at room temperature",> 3000 µM
"Cc1cn([C@H]2C[C@H](N=[N+]=[N-])[C@@H](CO)O2)c(=O)[nH]c1=O [AZT, 3'-azido-3'-deoxythymidine]",toxic side effects,[3],suppression of bone marrow growth in the patient
O=c1[nH]c(=O)n(COCCO)cc1Cc1ccccc1 [BAU],Ki,uridine phosphorylase [1],3.2 µM
same,solubility in water,[4],about 1 mM
same,solubility,[2]; water,1000 µM
"O=C1NC(=O)C(Cc2ccccc2)C(=O)N1 [BB, 5-benzyl barbiturate]",Ki,uridine phosphorylase [1],44 µM
same,solubility,[2]; [7],> 3000 µM
"O=C1NC(=O)N(COCCO)C(=O)C1Cc1cccc(OCc2ccccc2)c1 (centres unmarked) [BBAB, 5-benzyloxybenzyl-1-[(1-hydroxy-2-ethoxy)methyl] barbiturate]",uridine phosphorylase inhibition compared with uracil / acyclouridine counterpart or analogue,uridine phosphorylase [1],further improves inhibition
same,Ki,uridine phosphorylase [1],0.8 µM
same,water solubility compared with acyclouridines,"[2]; in water, at room temperature",significantly greater than that of the acyclouridines
same,solubility,[2]; [7],≥ 3000 µM
"O=c1[nH]c(=O)n(COCCO)cc1Cc1cccc(OCc2ccccc2)c1 [BBAU, 5-benzyl-oxybenzyl-acyclouridine]",Ki,uridine phosphorylase [1],1.1 µM
same,solubility in water,[4],about 1 mM
same,solubility,[2]; water,≤ 1000 µM
"O=C1NC(=O)C(Cc2cccc(OCc3ccccc3)c2)C(=O)N1 [BBB, 5-benzyloxybenzyl barbiturate]",uridine phosphorylase inhibition compared with uracil / acyclouridine counterpart or analogue,uridine phosphorylase [1],significantly stronger uridine phosphorylase inhibitor than BBU
same,Ki,uridine phosphorylase [1],3 µM
same,solubility,[2]; [7],> 3000 µM
"O=c1[nH]cc(Cc2cccc(OCc3ccccc3)c2)c(=O)[nH]1 [BBU, 5-benzyloxybenzyl uracil]",solubility,[2]; water,≤ 1000 µM
O=c1[nH]cc(Cc2ccccc2)c(=O)[nH]1 [BU],Ki,uridine phosphorylase [5],54 µM
same,solubility,[2]; water,≤ 1000 µM
"O=C1CC(=O)NC(=O)N1 [Barbiturate, barbituric acid]",Ki,uridine phosphorylase [1],~1500 µM
same,solubility,"[2]; in water, at room temperature, read-out: SOL. (solubility)",> 3000 µM
O=c1[nH]c(=O)n(COC(CO)CO)cc1Cc1cccc(OCc2ccccc2)c1 [HM-BBAU],solubility in water,[4],about 1 mM
"COc1cccc(CC2C(=O)NC(=O)N(COCCOC(C)=O)C2=O)c1 (centres unmarked) [MBCAB, 5-Methoxybenzylacetyl acyclo barbiturate]",Ki,uridine phosphorylase [1],1.9 µM
same,solubility,[2]; [7],> 3000 µM
Nc1ccn([C@@H]2O[C@H](CO)[C@@H](O)[C@H]2O)c(=O)n1 [cytidine],reversal of toxic effects of AZT,[6],to a lesser extent
O=c1ccn([C@@H]2O[C@H](CO)[C@@H](O)[C@H]2O)c(=O)[nH]1 [uridine],toxic side effects,[3],"toxic side effects, such as phlebitis and pyrogenic reactions"
same,reversal of toxic effects of AZT,[6],can reverse the toxic effects of AZT in human bone marrow progenitor cells (HBMP)
